“And” between values parts separate entries of the source, which are not always exact repeats. Equal values may be shown once. “Also recorded” adds a separate entry of the source. Read-outs that look alike come from different tables or passages of the source.
Assays:
HOP-62 = experiment: NCI60 antitumor screening; type: cell-based, human; settings: five-dose
EKVX = experiment: NCI60 antitumor screening; type: cell-based, human
MALME-3M = experiment: NCI60 antitumor screening; type: cell-based, human
melanoma subpanel = experiment: NCI60 five-dose, subpanel V; type: cell-based, human
Source text: (§1) (2) The molar concentration of the compound responsible for total growth inhibition, also known as total growth inhibition (TGI).
(§2) Regarding subpanel selectivity toward certain cancer type, the method of determining a compound's selectivity index is to divide the full panel MG-MID (μM) value by each single subpanel. Values above six indicate high selectivity against the subpanel; moderate selectivity is denoted by values between three and six. Conversely, compounds are termed nonselective if their selectivity is less than three.[30,37]

HCT-116 = experiment: NCI60 antitumor screening; type: cell-based, human
MDA-MB-231/ATCC = experiment: NCI60 antitumor screening; type: cell-based, human; settings: Homo sapiens; 10 μM single dose; MDA-MB-231/ATCC (breast cancer); read-out: growth inhibition percent (GI%)
SR = experiment: NCI60 antitumor screening; type: cell-based, human
SK-MEL-28 = experiment: NCI60 antitumor screening; type: cell-based, human
CNS cancer subpanel = experiment: NCI60 five-dose, subpanel IV; type: cell-based, human
Source text: as §1, §2

COX-1 = molecular target: T1, COX-1 (Ovis aries, UniProt P05979); experiment: COX-1 inhibitor screening kit (Biovision); type: biochemical; settings: means ± SD of three experiments; read-out: COX1 IC50
T1 construct: purchased Biovision K548
T1 sequence (P05979 25-600): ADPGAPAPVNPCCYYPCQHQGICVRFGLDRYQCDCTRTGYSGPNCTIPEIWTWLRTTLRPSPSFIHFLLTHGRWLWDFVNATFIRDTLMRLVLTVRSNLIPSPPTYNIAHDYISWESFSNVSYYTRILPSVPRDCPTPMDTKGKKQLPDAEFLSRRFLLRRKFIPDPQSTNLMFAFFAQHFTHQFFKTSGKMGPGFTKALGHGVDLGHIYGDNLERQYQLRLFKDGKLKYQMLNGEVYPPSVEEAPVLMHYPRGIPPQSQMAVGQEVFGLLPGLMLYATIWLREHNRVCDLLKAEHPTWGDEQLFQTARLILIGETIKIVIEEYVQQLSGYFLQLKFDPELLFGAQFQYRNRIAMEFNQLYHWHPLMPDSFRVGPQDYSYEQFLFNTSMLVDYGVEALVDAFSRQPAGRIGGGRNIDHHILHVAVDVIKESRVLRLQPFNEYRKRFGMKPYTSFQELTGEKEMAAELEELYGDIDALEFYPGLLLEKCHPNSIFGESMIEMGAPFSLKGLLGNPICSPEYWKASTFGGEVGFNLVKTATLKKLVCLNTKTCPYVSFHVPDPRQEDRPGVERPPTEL
Procedure: The inhibitory activity of novel 4e & 4f against COX-1/COX-2 was evaluated by using Biovision COX-1/COX-2 Inhibitor Screening Kit (Catalog #: K548) and (Catalog #: K547), respectively.

SF-539 = experiment: NCI60 antitumor screening; type: cell-based, human
NCI60 cell lines panel = experiment: NCI60 antitumor screening, full panel; type: cell-based, human
Method in brief: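 Single-concentration screen at 10 μM across the NCI60 panel (leukaemia, NSCLC, colon, CNS, melanoma, ovarian, renal, prostate, breast). Results are expressed as percent growth inhibition (GI%) of treated lines.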

OVCAR-4 = experiment: NCI60 antitumor screening; type: cell-based, human
A498 = experiment: NCI60 antitumor screening; type: cell-based, human
[1] = full panel MG-MID / subpanel IV
[2] = Homo sapiens, SF-539, five-dose
[3] = Homo sapiens, OVCAR-4, five-dose

N#Cc1c(-c2ccc(F)cc2)nc(SCc2ccccc2)nc1N1CCNCC1 [4e, 2-(Benzylthio)-4-(4-fluorophenyl)-6-(piperazin-1-yl) pyrimidine-5-carbonitrile] was tested, and the TGI (HOP-62) was 28.10 µM, the GI50 (EKVX; Homo sapiens, EKVX, five-dose) was 12 µM and the LC50 (EKVX; Homo sapiens, EKVX, five-dose) was 51 µM. It also gave an inhibition at 10 µM (EKVX; Homo sapiens, 10 μM single dose, EKVX (non-small cell lung cancer), read-out: growth inhibition percent (GI%)) greater than 100%, a TGI (EKVX; five-dose) of 24.80 µM and a GI50 (MALME-3M; Homo sapiens, Malme-3M, five-dose) of 14.1 µM. It also gave a CC50 (MALME-3M; Homo sapiens, Malme-3M, five-dose, read-out: LC50 (the source's name)) of 56.3 µM, an inhibition at 10 µM (MALME-3M; Homo sapiens, 10 μM single dose, MALME-3M (melanoma), read-out: growth inhibition percent (GI%)) greater than 100% and a TGI (MALME-3M; five-dose) of 28.20 µM. For the same compound, the GI50 (melanoma subpanel; Homo sapiens, subpanel V, read-out: MG-MID (GI50)) was 13 µM, the “Selectivity index (GI50)” value (melanoma subpanel; full panel MG-MID / subpanel V) was 0.82 and the “Selectivity index (TGI)” value (melanoma subpanel; full panel MG-MID / subpanel V) was 0.93. The “MG-MID (TGI)” value (melanoma subpanel; subpanel V) was 25.21 µM, the GI50 (HCT-116; Homo sapiens, HCT-116, five-dose) was 3.51 µM and the CC50 (HCT-116; Homo sapiens, HCT-116, five-dose, read-out: LC50 (the source's name)) was 38.1 µM. For the same compound, the inhibition at 10 µM (HCT-116; Homo sapiens, 10 μM single dose, HCT-116 (colon cancer), read-out: growth inhibition percent (GI%)) was greater than 100%, the TGI (HCT-116; five-dose) was 11.60 µM and the inhibition at 10 µM (MDA-MB-231/ATCC) was greater than 100%. For the same compound, the GI50 (SR; Homo sapiens, SR, five-dose) was 1.92 µM, the CC50 (SR; Homo sapiens, SR, five-dose, read-out: LC50 (the source's name)) was 13.8 µM and the inhibition at 10 µM (SR; Homo sapiens, 10 μM single dose, SR (leukaemia), read-out: growth inhibition percent (GI%)) was greater than 100%. For the same compound, the TGI (SR; five-dose) was 4.61 µM, the GI50 (SK-MEL-28; Homo sapiens, SK-MEL-28, five-dose) was 16.3 µM and the CC50 (SK-MEL-28; Homo sapiens, SK-MEL-28, five-dose, read-out: LC50 (the source's name)) was 56.3 µM. For the same compound, the inhibition at 10 µM (SK-MEL-28; Homo sapiens, 10 μM single dose, SK-MEL-28 (melanoma), read-out: growth inhibition percent (GI%)) was greater than 100%, the TGI (SK-MEL-28; five-dose) was 30.30 µM and the GI50 (CNS cancer subpanel; Homo sapiens, subpanel IV, read-out: MG-MID (GI50)) was 12.6 µM. The “Selectivity index (GI50)” value (CNS cancer subpanel; [1]) was 0.85, the “Selectivity index (TGI)” value (CNS cancer subpanel; [1]) was 0.88 and the “MG-MID (TGI)” value (CNS cancer subpanel; subpanel IV) was 26.80 µM. It also gave an IC50 (COX-1) of 11 ± 0.31 µM, a GI50 (SF-539; [2]) of 15.7 µM and an LC50 (SF-539; [2]) of 54.9 µM. For the same compound, the inhibition at 10 µM (SF-539; Homo sapiens, 10 μM single dose, SF-539 (CNS cancer), read-out: growth inhibition percent (GI%)) was greater than 100%, the TGI (SF-539; five-dose) was 29.40 µM and the “One-dose activity over the NCI60 panel” value (NCI60 cell lines panel; 10 μM) was “lethal effect to all cancer subpanels; also recorded: Lethal to all NCI60 cell lines”. For the same compound, the inhibition at 10 µM (NCI60 cell lines panel; Homo sapiens, 10 μM single dose, mean over NCI60 cell lines, read-out: Mean growth inhibition percent (GI%)) was greater than 100%, the GI50 (NCI60 cell lines panel; Homo sapiens, average of all cell lines, read-out: Full panel MG-MID (GI50)) was 10.7 µM and the GI50 (NCI60 cell lines panel; Homo sapiens, five-dose, read-out: GI50 range, leukemia and colon cancer cell lines) was 1.77 to 17.1 µM. For the same compound, the CC50 (NCI60 cell lines panel; Homo sapiens, five-dose, read-out: LC50 range over examined cell lines) was 5 to 69 µM, the “Full panel MG-MID (TGI)” value (NCI60 cell lines panel; average of all cell lines) was 23.60 μM and 23.60 ^e μM and the GI50 (OVCAR-4; [3]) was 15.7 µM. The LC50 (lethal concentration, 50% cell kill) (OVCAR-4; [3]) was 74.7 µM, the inhibition at 10 µM (OVCAR-4; Homo sapiens, 10 μM single dose, OVCAR-4 (ovarian cancer), read-out: growth inhibition percent (GI%)) was greater than 100% and the TGI (OVCAR-4; five-dose) was 34.20 µM. It also gave a GI50 (A498; Homo sapiens, A498, five-dose) of 13.1 µM, an LC50 (A498; Homo sapiens, A498, five-dose) of 56.9 µM and an inhibition at 10 µM (A498; Homo sapiens, 10 μM single dose, A498 (renal cancer), read-out: growth inhibition percent (GI%)) greater than 100%. It also gave a TGI (A498; five-dose) of 27.30 µM.

Reference: publication PMC10620772, “Design, synthesis, and biological evaluation of new pyrimidine-5-carbonitrile derivatives as novel anti-cancer, dual EGFR^WT/COX-2 inhibitors with docking studies” (RSC Advances, 2023)
